The target in assay [1] is T1, LTB4 receptor (Cavia porcellus, UniProt H0VYV8).
T1 construct: 1.0 mg/mL of the Guinea pig spleen membrane preparation; from tissue; host or cells: guinea pig spleen membranes
The assay can be described thus: Inhibition of [3H]LTB4 binding, guinea pig spleen membrane assay. The conditions noted are these: 10 μM test compound; for LTB4 % inhib @ 10 μm: 1 nM [3H]LTB4; for inhibition at 10 µM: 1 nM [3H]LTB4, read-out: LTB4 % inhib @ 10 μm. The protocol: The ability of 1-(3-hydroxy-4-methoxyphenyl)-4-methyl-5-ethyl-7,8-dimethoxy-5H-2,3-benzodiazepine to inhibit [^3H]LTB4 binding to the LTB4 receptor was determined as follows using the guinea pig spleen membrane assay of Cheng et al., J. Pharmacol. Exp. Ther., 236(1), 126-132, 1986, the entire disclosure of which is incorporated herein by reference.
Reactions were carried out in a phosphate buffer (pH 7.4) containing NaCl, MgCl2, EDTA, and bacitracin. The reaction volume of 150 μL containing 1.0 mg/mL of the Guinea pig spleen membrane preparation and 1 nM [^3H]LTB4, with or without a candidate inhibitor, was incubated at 0-4° C. for 2 hours. Candidate inhibitors included the compounds listed in Table 1 and unlabeled LTB4 as a control. The reaction was terminated by rapid vacuum filtration onto glass fiber filters. The filter was washed with cold buffer, dried and placed in a scintillation vial. Radioactivity trapped onto the filters was determined and compared to control values in order to ascertain any interactions of the test compound with the LTB4 binding site.

For assay [2], the system named is DSS-induced colitis in mice. As to the kind of experiment: Dextran sulfate sodium induced colitis: mouse model of inflammatory bowel disease. Format: in vivo. The conditions noted are these: for % of normal length: colon length; for Mean DAIWT ± SEM: DAI without weight loss parameter; for Mean DAI ± SEM: mice.
Assay [3] deals with peripheral BZ receptors (Homo sapiens, UniProt P30536). To be noted: cited from earlier work.
Chain of peripheral BZ receptors (P30536 whole entry): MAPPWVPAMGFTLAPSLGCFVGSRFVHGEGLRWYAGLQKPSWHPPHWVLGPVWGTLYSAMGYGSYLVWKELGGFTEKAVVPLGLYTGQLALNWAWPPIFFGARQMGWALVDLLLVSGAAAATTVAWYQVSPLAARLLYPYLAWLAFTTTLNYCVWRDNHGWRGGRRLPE
The subject of assay [4] is central BZ receptors. The conditions noted are these: cited from earlier work.
Assay [5] relates to aggression in mice. To be noted: cited from earlier work.
Assay [6] has as its system muricide in rats. To be noted: cited from earlier work.
The test system of assay [7] is anti-noradrenergic effects. The conditions noted are these: cited from earlier work.
Assay [8] addresses T2, TXA2 receptor (Homo sapiens, UniProt P21731).
T2 construct: from tissue; host or cells: human platelets
T2 sequence (P21731 1-343): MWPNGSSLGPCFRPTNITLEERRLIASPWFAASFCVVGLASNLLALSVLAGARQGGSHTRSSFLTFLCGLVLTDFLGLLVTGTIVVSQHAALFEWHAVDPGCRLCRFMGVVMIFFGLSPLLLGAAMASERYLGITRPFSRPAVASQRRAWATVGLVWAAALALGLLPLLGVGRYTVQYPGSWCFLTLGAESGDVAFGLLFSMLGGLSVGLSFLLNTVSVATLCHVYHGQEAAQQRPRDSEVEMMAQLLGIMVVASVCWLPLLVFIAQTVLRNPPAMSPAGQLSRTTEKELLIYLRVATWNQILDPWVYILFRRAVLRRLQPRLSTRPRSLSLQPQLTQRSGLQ
As to the kind of experiment: TXA2 binding assay ([3H]SQ 29,548), human platelet-based. To be noted: human platelets. The protocol:
The ability of 1-(3-hydroxy-4-methoxyphenyl)-4-methyl-5-ethyl-7,8-dimethoxy-5H-2,3-benzodiazepine to inhibit the binding of [^3H]SQ 29,548 (30-60 Ci/mmol) was determined via the human platelet-based assay of Hedberg et al., “Characterization of [^3H]SQ 29,548 as a High Affinity Radioligand Binding to Thromboxane A2—Receptors in Human Platelets.”, J. Pharmacol. Exp. Ther. 245: 786-792 (1988), with modifications. TXA2 is a very unstable molecule, thus a surrogate ligand of known affinity for the TXA2 receptor is required as a standard for determination of binding affinity of new potential TXA2 ligands. [^3H]SQ 29,548 is a ligand with known binding affinity for the TXA2 receptor. [^3H]SQ 29,548 has been employed as a TXA2 ligand in several published studies, is accepted as a TXA2 binding standard, and is thus useful as a standard in assessing the binding affinity of new compounds to the TXA2 receptor. […]
Reactions were carried out in a reaction mixture comprising 25 mM TRIS-HCl (pH 7.4) containing 138 mM NaCl, 5 mM KCl, 5 mM MgCl2, 5.5 mM dextrose, and 2 mM EDTA at 25° C. for 60 minutes. […] Radioactivity trapped onto the filters was determined and compared to control values in order to ascertain any interactions of test compound with the thromboxane A2 binding site.

Assay [9] deals with T2, TXA2 receptor. The conditions noted are these: reference competitor in [3H]SQ 29,548 assay; cited from earlier work.
Assay [10] relates to narcosis in mice. The conditions noted are these: cited from earlier work.

T1 sequence (H0VYV8 1-348): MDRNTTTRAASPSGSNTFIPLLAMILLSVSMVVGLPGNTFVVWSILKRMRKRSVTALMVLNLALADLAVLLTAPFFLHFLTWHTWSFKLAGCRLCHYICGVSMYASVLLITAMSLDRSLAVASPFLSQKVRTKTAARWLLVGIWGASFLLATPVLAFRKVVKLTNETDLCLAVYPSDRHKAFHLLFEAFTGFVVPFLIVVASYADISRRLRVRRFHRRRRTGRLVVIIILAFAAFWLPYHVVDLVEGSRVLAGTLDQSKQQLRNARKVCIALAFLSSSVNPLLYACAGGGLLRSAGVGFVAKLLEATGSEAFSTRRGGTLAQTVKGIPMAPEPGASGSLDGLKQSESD

`CCC1C(C)=NN=C(c2ccc(OC)c(O)c2)c2cc(OC)c(O)cc21` (stereo not drawn) [Compound 6, 1-(3-hydroxy-4-methoxyphenyl)-4-methyl-5-ethyl-7-hydroxy-8-methoxy-5H-2,3-benzodiazepine]: the “LTB4 % inhib @ 10 μm” value in assay [1] is “inactive”.

On to `O=C(O)c1cc(/N=N/c2ccc(S(=O)(=O)Nc3ccccn3)cc2)ccc1O` [Sulfasalazine, reference compound], for which, in assay [2] (300 mg/kg IP daily + DSS), the “Colon shortening inhib. %” value amounted to 30%, the “Mean colon length CM ± SEM” value is 8.8 ± 0.29 CM, the “Mean weight (g) ± SEM Day 0” value turned out to be 22.6 ± 0.2 g and the “% weight change ± SEM Day 7” value is on record as −0.6 ± 0.5%. Further, in assay [2] (300 mg/kg IP daily + DSS), the “Mean weight (g) ± SEM Day 7” value came out at 22.4 ± 0.2 g, the “% weight change ± SEM Day 8” value is −11.4 ± 1.4%, the “Mean weight (g) ± SEM Day 8” value is on record as 20.0 ± 0.4 g and the “% weight change ± SEM Day 9” value is recorded as −17.7 ± 1.8%. For the same compound, in assay [2] (300 mg/kg IP daily + DSS), the “Mean weight (g) ± SEM Day 9” value amounted to 18.6 ± 0.4 g and the “% of normal length” value is recorded as 69.5%. Also, the “weight loss as compared to the negative controls” value in [2] (300 mg/kg daily + DSS) is “no observed significant difference”.

As for `CCC1C(C)=NN=C(c2ccc(OC)c(OC)c2)c2cc(OC)c(OC)cc21` (stereo not drawn) [tofisopam], in [3], the “binding to peripheral BZ receptors” value was “binds only weakly”. In assay [4], the “interaction with central BZ receptors” value is given as “does not interact”.

As for `CCC1C(C)=NN=C(c2ccc(OC)c(OC)c2)c2cc(OC)c(O)cc21` (stereo not drawn) [Compound 1, 1-(3,4-dimethoxyphenyl)-4-methyl-5-ethyl-7-hydroxy-8-methoxy-5H-2,3-benzodiazepine], the inhibition of aggression in assay [5] is on record as 0%. Further, the inhibition of muricide in assay [6] is listed as 20%. Also, the anti-noradrenergic effects result in assay [7] was “no effect”.

Turning to `CCC1C(C)=NN=C(c2ccc(OC)c(O)c2)c2cc(OC)c(OC)cc21` (racemic) [Compound 4, 1-(3-hydroxy-4-methoxyphenyl)-4-methyl-5-ethyl-7,8-dimethoxy-5H-2,3-benzodiazepine], in [1], the inhibition at 10 µM is 64%. The compound further returned an inhibition at 10 µM in assay [8] of 25.9%. In addition, in assay [2] (16 mg/kg IP daily + DSS), the “Mean colon length CM ± SEM” value worked out at 8.9 ± 0.40 CM, the “Mean weight (g) ± SEM Day 0” value stood at 24.6 ± 0.5 g, the “% weight change ± SEM Day 7” value is given as “+0.5 ± 2.2%” and the “Mean weight (g) ± SEM Day 7” value was found to be 24.8 ± 0.8 g. Also, in assay [2] (16 mg/kg IP daily + DSS), the “% weight change ± SEM Day 8” value was −1.7 ± 3.0%, the “Mean weight (g) ± SEM Day 8” value worked out at 24.3 ± 1.0 g, the “% weight change ± SEM Day 9” value is on record as −7.5 ± 4.3% and the “Mean weight (g) ± SEM Day 9” value is given as 22.9 ± 1.4 g. In assay [2] (16 mg/kg IP daily + DSS), the “% of normal length” value was determined as 70.2%. For the same compound, the “Colon shortening inhib. %” value in assay [2] (16 mg/kg IP daily + DSS, listed as 1-(3-hydroxy-4-methoxy-phenyl)-4-methyl-5-ethyl-7,8-dimethoxy-5H-2,3-benzodiazep) is reported as “significantly inhibited colonic shortening”. Besides, the “Colon shortening inhib. %” value in assay [2] (16 mg/kg IP daily + DSS, listed as 1-(3-hydroxy-4-methoxyphenyl)-4-methyl-5-ethyl-7,8-dimethoxy-5H-2,3-benzodiazepi) worked out at 32%. In [2] (32 mg/kg IP daily + DSS), the “Colon shortening inhib. %” value came out at 14%, the “Mean colon length CM ± SEM” value turned out to be 7.9 ± 0.08 CM, the “Mean DAIWT ± SEM” value came out at 2.56 ± 0.27 and the “Mean weight (g) ± SEM Day 0” value came out at 24.8 ± 0.2 g. Besides, in assay [2] (32 mg/kg IP daily + DSS), the “% weight change ± SEM Day 7” value is reported as −2.5 ± 1.7%, the “Mean weight (g) ± SEM Day 7” value was 24.1 ± 0.5 g, the “% weight change ± SEM Day 8” value is −9.1 ± 2.6% and the “Mean weight (g) ± SEM Day 8” value is 22.5 ± 0.7 g. Also, in [2] (32 mg/kg IP daily + DSS), the “% weight change ± SEM Day 9” value was −15.7 ± 4.1%, the “Mean weight (g) ± SEM Day 9” value came out at 20.9 ± 1.0 g, the “% of normal length” value is 62.3% and the “Mean DAI ± SEM” value was 2.67 ± 0.36. Moreover, in [2] (64 mg/kg IP daily + DSS), the “Colon shortening inhib. %” value came to 37%, the “Mean colon length CM ± SEM” value worked out at 9.2 ± 0.33 CM, the “Mean DAIWT ± SEM” value is 2.00 ± 0.45 and the “Mean weight (g) ± SEM Day 0” value was found to be 23.7 ± 0.2 g. Moreover, in assay [2] (64 mg/kg IP daily + DSS), the “% weight change ± SEM Day 7” value is given as −2.7 ± 2.8%, the “Mean weight (g) ± SEM Day 7” value worked out at 23.0 ± 0.6 g, the “% weight change ± SEM Day 8” value was −4.8 ± 4.3% and the “Mean weight (g) ± SEM Day 8” value is 22.5 ± 0.9 g. In assay [2] (64 mg/kg IP daily + DSS), the “% weight change ± SEM Day 9” value is on record as −9.7 ± 4.9%, the “Mean weight (g) ± SEM Day 9” value came to 21.3 ± 1.1 g, the “% of normal length” value turned out to be 72.5% and the “Mean DAI ± SEM” value worked out at 2.06 ± 0.48. In addition, the “weight loss as compared to the negative controls” value in assay [2] (test compound groups (64, 32, 16 mg/kg) + DSS) is recorded as “no observed significant difference”.

A word on the Ki: it is a dissociation constant, usually derived from enzyme kinetics or from competition with a known ligand. As for Pinane-thromboxane, the inhibition constant (Ki) in assay [9] is 149 nM.

Regarding `CCC1C(C)=NN=C(c2ccc(OC)c(OC)c2)c2cc(O)c(OC)cc21` (stereo not drawn) [Compound 2, 1-(3,4-dimethoxyphenyl)-4-methyl-5-ethyl-7-methoxy-8-hydroxy-5H-2,3-benzodiazepine], the inhibition at 10 µM in [1] turned out to be 36%.

On to `CCC1C(C)=NN=C(c2ccc(O)c(OC)c2)c2cc(OC)c(OC)cc21` (stereo not drawn) [Compound 3, 1-(3-methoxy-4-hydroxyphenyl)-4-methyl-5-ethyl-7,8-dimethoxy-5H-2,3-benzodiazepine], for which the inhibition at 10 µM in [1] was 16.8%. Moreover, the narcosis-potentiating activity entry in assay [10] is reported as “demonstrate narcosis-potentiating activity”. For the same compound, the inhibition of aggression in assay [5] is 0%. The inhibition of muricide in assay [6] is recorded as 0%. Moreover, the anti-noradrenergic effects entry in assay [7] is “measurable activity”.

As to `CCC1C(C)=NN=C(c2ccc(O)c(OC)c2)c2cc(OC)c(O)cc21` (stereo not drawn) [Compound 5, 1-(3-methoxy-4-hydroxyphenyl)-4-methyl-5-ethyl-7-hydroxy-8-methoxy-5H-2,3-benzodiazepine], the “LTB4 % inhib @ 10 μm” value in [1] is “inactive”. For the same compound, in assay [5], the inhibition of aggression is recorded as 28.6%. Moreover, the inhibition of muricide in assay [6] is recorded as 20%. Besides, in assay [7], the anti-noradrenergic effects entry was “measurable activity”.
